In assay [1] the test system is mice. Description: acetic acid mouse writhing test (analgesic effect, s.c.). It counts as in vivo, male CD-1 mice. The note with it: for ED50: mouse acetic acid writhing, s.c., dose reducing the number of writhes by 50%, IA @ dose = inactive at that dose. On the procedure: (A) Analgesic effects upon mice (acetic acid writhing test).
TEST A. ACETIC ACID MOUSE WRITHING TEST
The analgesic effects of test compounds were determined in mice by use of the acetic acid writhing test described by B. J. R. Whittle, Brit. J. Pharmacol., 22:246 (1964). In this test at least three groups of five male CD-1 mice (18-22 g) each were given subcutaneous doses of the test drug dissolved in either distilled water or distilled water acidified with HCl depending on the solubility of the compound. In all cases, 0.4 milliliter of a 0.5% V/V acetic acid in distilled water solution was administered intraperitoneally 15 minutes post drug. The number of writhes in a 20 min. interval beginning 5 minutes after the acetic acid injection were determined and compared with the number of writhes in control groups which had received only acetic acid.
Percent inhibition of writhing was calculated as: [formula]
The ED50 dose, i.e., the dose required to reduce the number of writhes by 50%, was determined graphically from a plot of % inhibition as a probit versus log dose. Confidence limits of 95% were calculated on the basis of those results falling in the range 16-84% inhibition. See Litchfield, J. T. and Wilcoxon, F., J. Pharmacol. Exp. Ther., 96, 99-113, (1949).

In assay [2] the test system is rats. Description: narcotic antagonist activity, modified rat tail flick test against morphine. Particulars: for AD50: rat tail flick, dose inhibiting the morphine (ED80 dose s.c.) effect by 50%, IA @ dose = inactive at that dose; for analgesic (agonist)/narcotic antagonist activity profile: conclusion from Tests A and B. On the set-up: AD50: unit not given here. The assay is classed as in vivo, male albino Wistar rats. As to the method:
(B) Narcotic antagonist activity in rats (modified rat tail flick test).
TEST B. EVALUATION OF NARCOTIC ANTAGONIST ACTIVITY
The narcotic antagonist effects of test compounds were determined by a modification of the rat tail flick procedure of Harris and Pierson (J. Pharmacol. Exp. Ther. 143:141 [1964]).
Male albino Wistar rats (100-120 g) were used for this study. A rat's tail is so placed so as to cover a photocell. Heat is applied by a lamp in a reflector with a timer being connected to the lamp and photocell so that the timer goes on when the light is turned on and is turned off when the photocell is uncovered. A rheostat, incorporated into a heating lamp is used to adjust the intensity of the light falling on the tail of the rat such that the rat's control reaction time is from two to four seconds. Animals with a control reaction time outside this range are rejected. The rheostat adjustment is made only if a significant proportion (more than 2 out of every 10 rats) of the reaction times are outside the range of two to four seconds. Groups of five rats were used each time, and two control times were determined at 60 and 30 minutes prior to subcutaneous injection of the drug.
Thirty minutes after the last control run the test drug was given intraperitoneally. This was followed ten minutes later by an ED80 dose of morphine subcutaneously. The animals were retested at 20 minutes after the morphine injection. Control animals were given vehicle and morphine only. The data were calculated as follows: [formula]
The data were plotted on log-probit paper and AD50 values, i.e., the dose required to inhibit the morphine effect by 50% within 95% confidence limits, were determined by the method of Litchfield and Wilcoxon.
For orientation: Hot-plate and tail-flick tests time the reaction to a heat stimulus.

The nature of assay [3]: charcoal meal test with attempted naloxone reversal. The assay is classed as in vivo.
The mark [4] stands for this setting: more potent than TR-5222 by a factor.

Consider four compounds from patent US4230712A, “7-Methyl-8β-lower alkyl or 7-methyl-8-lower alkyl B/C cis or trans morphinan-6-one compounds and therapeutic method of treating pain employing them” (Miles Laboratories, Inc., priority 1978, dated 1980).

Where a name gives a salt, the structure may show the parent alone. Read-outs that look alike come from different tables or passages of the source.

As usually defined, the ED50 is the midpoint of the dose-response relation. Turning to `C[C@H]1C[C@H]2[C@H]3Cc4ccc(O)cc4[C@@]2(CCN3CC2CC2)CC1=O.Cl` [TR-5177, 17-Cyclopropylmethyl-3-hydroxy-7α-methylmorphinan-6-one Hydrochloride], in assay [1] (sc, read-out: ED50), the ED50 was found to be 0.87 mg/kg. In assay [2], this compound returned an AD50 of 5.2. For the same compound, the “action in charcoal meal test upon attempted naloxone reversal” value in assay [3] (attempted reversal with naloxone, Hydrochloride) was “novel action in charcoal meal test upon attempted naloxone reversal”. For the same compound, the “duration of action suggested by charcoal meal test” value in assay [3] (inferred from novel action upon attempted naloxone reversal) was “may have a longer duration of action than would be expected”.

In the case of `CC[C@@H]1[C@H]2[C@H]3Cc4ccc(O)cc4[C@@]2(CCN3CC2CCC2)CC(=O)[C@H]1C` [TR-5333, 17-Cyclobutylmethyl-8β-ethyl-3-hydroxy-7α-methyl-morphinan-6-one], the ED50 in assay [1] (sc, read-out: ED50) turned out to be 3.3 mg/kg. The “analgesic (agonist)/narcotic antagonist activity profile” value in assay [2] (in words) was “both analgesic and narcotic antagonist activity”. Moreover, the AD50 in assay [2] is recorded as 1.95.

Regarding `C[C@H]1[C@@H]2[C@H]3Cc4ccc(O)cc4[C@@]2(CCN3CC2CC2)CC(=O)[C@@H]1C` [TR-5343, 17-Cyclopropylmethyl-7β,8α-dimethyl-3-hydroxy-isomorphinan-6-one Hydrobromide], the “analgesic potency relative to TR-5222” value in assay [1] (setting [4]) is “approximately two”. Also, the median effective dose (ED50) in assay [1] (sc, read-out: ED50) amounted to 1.89 mg/kg. Further, the “analgesic potency relative to TR-5196” value in assay [1] (times as potent as geometric isomer TR-5196) is listed as “approximately 4 times”. In assay [2] (in words), the “analgesic (agonist)/narcotic antagonist activity profile” value is “mixed analgesic and narcotic antagonist activity”. The “narcotic antagonist potency relative to TR-5222” value in assay [2] (setting [4]) was “approximately two”. In addition, in assay [2], the AD50 is 0.43. In assay [2] (vs geometric isomer TR-5196), the “narcotic antagonist potency relative to TR-5196” value is on record as “somewhat less potent”.

With `CC[C@H]1[C@@H]2[C@H]3Cc4ccc(O)cc4[C@@]2(CCN3CC2CCC2)CC(=O)[C@@H]1C` [TR-5370, 17-Cyclobutylmethyl-8α-ethyl-3-hydroxy-7β-methyl-isomorphinan-6-one Hydrochloride], the analgesic activity entry in assay [1] (in words) was “essentially inactive”. In addition, the ED50 result in assay [1] is given as “IA @ 10”. The narcotic antagonist activity entry in assay [2] (in words) is “essentially inactive”. Besides, the AD50 in assay [2] was greater than 10.
